In patent publication US5538985A, “Pyrrolidinone derivatives” (Mitsui Toatsu Chemicals, Inc., priority 1994, dated 1996) one finds Ki and inhibition in vivo data, which are given here for 31 compounds.

T1 sequence (Q9R0C9 whole entry): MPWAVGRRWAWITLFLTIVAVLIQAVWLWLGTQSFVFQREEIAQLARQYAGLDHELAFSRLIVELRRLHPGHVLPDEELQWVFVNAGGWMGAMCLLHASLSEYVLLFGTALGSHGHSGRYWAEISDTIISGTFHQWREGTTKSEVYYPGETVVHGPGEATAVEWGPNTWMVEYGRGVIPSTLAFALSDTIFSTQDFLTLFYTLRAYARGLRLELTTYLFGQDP

One test addresses T1, α1 receptor (Rattus norvegicus, UniProt Q9R0C9).
T1 construct: whole brain of a rat except for the cerebellum and medulla; from tissue; host or cells: rat whole brain except cerebellum and medulla, homogenate
Description: radioreceptor assay (α1 [sic] receptor) with 3H-(+)pentazocine in rat whole brain homogenate (Pharmacological Test 1). It counts as binding. The following applies: 3H-(+)pentazocine 5 nM, rat whole brain except cerebellum and medulla, 2 hours. As to the method:
By modifying the Vilner et al. method [B. J. Vilner and W. D. Bowen: Mechanisms for Neuromodulation and neuroprotection? in Multiple Sigma and PCP Receptor Ligands, pp341 (1992) NPP Books], a radioreceptor assay was conducted with respect to the α1 receptor. A homogenate (10 mg/ml) of the whole brain of a rat except for the cerebellum and medulla was incubated together with each test drug and ^3 H-ligand [5 nM of ^3 H-(+)pentazocine (NEN)] for 2 hours. Brain tissue was filtered under suction through a glass fiber filter paper ("GF/B", trade name; manufactured by Whatman) using a cell harvester ("LL-12", trade name; manufactured by Brandel) and was washed twice, each with 3 ml of a buffer solution. The glass fiber filter paper was placed in a vial, to which 3.5 ml of a scintillator ("ACSII" trade name; product of Amersham International plc) were added. After being left for 10 hours, the amount of ^3 H-ligand bound to the receptor was measured by a liquid scintillation counter. Incidentally, (+)-pentazocine (10 μM) was used for the measurement of a blank.
Binding rates of ^3 H-ligand to the receptor at individual concentrations of each test drug were plotted to draw a graph by assuming that the binding rate without addition of the test drug was 100% and that when the blank substance was added was 0%. A concentration of the test drug, which would give a binding rate of 50%, was then determined and recorded as an IC50 value. From the IC50 value, the Ki value was determined in accordance with the following formula: [formula] KD represents the dissociation constant between ^3 H-ligand and the receptor, and was obtained by the Scatchard plotting of the bonding to the receptor when the concentration of ^3 H-ligand was varied.
As for `O=C1C(CN2CCCCCC2)CCN1c1ccc(Cl)cc1` (single isomer, unassigned; (-)) [Example 93 (-) form, (-) 1-(4-Chlorophenyl)-3-(hexahydro-1H-azepin-1-ylmethyl)-2-pyrrolidinone], the inhibition constant Ki (as a rule, the equilibrium dissociation constant of an inhibitor or competing ligand from its target) was found to be 1.5 nM.
`O=C1C(CN2CCCCCC2)CCN1c1ccc(Cl)cc1` (stereo not shown) [Example 1] displayed a Ki of 2.7 nM.
`O=C1C(CN2CCCCC2)CCN1c1ccc(Cl)c(Cl)c1` (stereo not shown) [Example 2]: affinity was put at a Ki of 2.8 nM.
The same measure, in the same setting: then `O=C1C(CN2CCCCCC2)CCN1c1cccc(C(F)(F)F)c1` (stereo not shown) [Example 3], with 3.2 nM.
Still for that read-out and setting: then `CC1CCN(CC2CCN(c3cccc(C(F)(F)F)c3)C2=O)CC1` (stereo not shown) [Example 11], with 2.1 nM; and `O=C1C(CN2CCCCC2)CCN1c1cccc(Cl)c1` (stereo not shown) [Example 12], with 4.7 nM.
`O=C1C(CN2CCCCC2)CCN1c1cccc(Br)c1` (stereo not shown) [Example 13]: affinity was put at a Ki of 1.3 nM.
As to `O=C1C(CN2CCCCC2)CCN1c1cccc(C(F)(F)F)c1` (stereo not shown) [Example 20], the affinity corresponds to a Ki of 3.5 nM.
Same read-out and setting: then `CC1CCN(CC2CCN(c3ccc(C(C)(C)C)cc3)C2=O)CC1` (stereo not shown) [Example 27], with 2.3 nM; and `CCC1CCN(CC2CCN(c3ccc(Cl)cc3)C2=O)CC1` (stereo not shown) [Example 29], with 3.8 nM; and `O=C1C(CN2CCCCCCC2)CCN1c1ccc(Cl)c(Cl)c1` (stereo not shown) [Example 31], with 1.2 nM.
On the same count and under the same terms, then `CC1CCN(CC2CCN(c3ccc(Cl)c(Cl)c3)C2=O)CC1` (stereo not shown) [Example 33], with 7 nM; and `COc1cccc(N2CCC(CN3CCC(C)CC3)C2=O)c1` (stereo not shown) [Example 43], with 3.6 nM.
Same read-out and setting: then `COc1cccc(N2CCC(CN3CCCCCC3)C2=O)c1` (stereo not shown) [Example 44], with 5.9 nM.
`CC1CCN(CC2(C)CCN(c3ccc(Cl)cc3)C2=O)CC1` (stereo not shown) [Example 49]: the Ki was determined as 3 nM.
Take `O=C1C(CN2CCCCC2)CCN1c1ccc(C(F)(F)F)cc1` (stereo not shown) [Example 74]: affinity was put at a Ki of 4.4 nM.
On the same count and under the same terms, then `COC1CCN(CC2CCN(c3ccc(Cl)cc3)C2=O)CC1` (stereo not shown) [Example 75], with 8 nM; and `O=C1C(CN2CCCCCC2)CCN1c1ccc(Cl)cc1` (stereo not shown) [Example 82], with 2 nM.

A further test concerns mAMP-induced hyperkinesia. Description: inhibition of methamphetamine (mAMP)-induced hyperkinesia in mice (Pharmacological Test 2). It counts as in vivo, mice (ddy male). The settings on record: Mus musculus, sc, 0.5 h; test drug 10 mg/kg peritoneally; methamphetamine 1.5 mg/kg subcutaneously; motion measured for 30 minutes; read-out: Inhibition rate of mAMP-induced hyperkinesia (%). As to the method:
Using mice, antipsychotic activities were investigated in terms of hyperkinesia induced by methamphetamine. For the experiment, ten 5 weeks-old ddy male mice (NIHON S.L.C K.K.) were used per each group. Immediately after each mouse was peritoneally administered at 10 mg/kg with the corresponding test drug, the mouse was placed in a photocell cage for measurement. The amount of motion was measured for 30 minutes (the first measurement: this was recorded as the action of the test drug for the active movement). Thereafter, the mouse was once taken out of the cage and subcutaneously administered at 1.5 mg/kg with methamphetamine. The mouse was then returned to the same cage and the amount of motion was measured for 30 minutes. An average amount of motion of each group was determined based on the amounts of motion after the administration of methamphetamine (mAMP) as obtained by the second measurement, and the inhibition rate (%) of hyperkinesia was calculated in accordance with the following formula: [formula]
The group to which the test drug was administered: the test drug+methamphetamine
Control group: vehicle+methamphetamine
Normal group: vehicle+saline
As to `O=C1C(CN2CCCCCC2)CCN1c1ccc(Cl)cc1` (stereo not shown) [Example 1], the inhibition in vivo at 10 mg/kg stood at 55%.
For the compound `O=C1C(CN2CCCCC2)CCN1c1ccc(Cl)cc1` (stereo not shown) [Example 23], the inhibition in vivo at 10 mg/kg was found to be 54%.
Same read-out and setting: then `CC1CCN(CC2CCN(c3ccc(Cl)cc3)C2=O)CC1` (stereo not shown) [Example 26], with 56%; and `CC1CCN(CC2CCN(c3ccc(Cl)c(Cl)c3)C2=O)CC1` (stereo not shown) [Example 33], with 53%; and `O=C1C(CN2CCCC2)CCN1c1ccc(Cl)cc1` (stereo not shown) [Example 36], with 56%.
Regarding `O=C1CC(CN2CCCCC2)CN1c1ccc(F)cc1` (stereo not shown) [Example 37], the inhibition in vivo at 10 mg/kg came out at 62%.
Same read-out and setting: then `CCc1ccc(N2CC(CN3CCCCC3)CC2=O)cc1` (stereo not shown) [Example 39], with 54%; and `O=C1C(CN2CCC(O)CC2)CCN1c1ccc(Cl)cc1` (stereo not shown) [Example 40], with 73%.
As to `COc1ccc(N2CCC(CN3CCC(C)CC3)C2=O)cc1` (stereo not shown) [Example 41], the inhibition in vivo at 10 mg/kg came out at 53%.
Same read-out and setting: then `CC(=O)C1CCN(CC2CCN(c3ccc(Cl)cc3)C2=O)CC1` (stereo not shown) [Example 45], with 51%; and `O=C1C(CN2CCCCCC2)CCN1c1ccc(F)cc1` (stereo not shown) [Example 53], with 62%; and `CC1CC(C)CN(CC2CCN(c3ccc(Cl)cc3)C2=O)C1` (stereo not shown) [Example 56], with 76%.
Same read-out and setting: then `O=C1C(CN2CCCCCC2)CCN1c1ccc(C2CCCCC2)cc1` (stereo not shown) [Example 64], with 57%; and `O=C1C(CN2CCCCCC2)CCN1c1ccc(-c2ccccc2)cc1` (stereo not shown) [Example 70], with 66%; and `COC1CCN(CC2CCN(c3ccc(Cl)cc3)C2=O)CC1` (stereo not shown) [Example 75], with 66%.
In the case of `CC1CCN(CC2CC(=O)N(c3ccc(Cl)cc3)C2)CC1` (stereo not shown) [Example 81], the inhibition in vivo at 10 mg/kg was determined as 53%.
